Source: patent publication US10946017B2, “Tank-binding kinase-1 PROTACs and associated methods of use” (Arvinas Operations, Inc., priority 2015, dated 2021)
“Also recorded” adds a separate entry of the source. Like-named read-outs stand apart in the source and are kept apart here.

Key:
[1] = target: T1, IKKε (Homo sapiens (Human), UniProt Q14164); assay: IKKε degradation in cells; type: cell-based
[2] = target: Von Hippel-Lindau (VHL) E3 ligase (Homo sapiens (Human), UniProt P40337); assay: VHL binding, FP assay; details: affinity of the VHL ligand component with side chain R2
[3] = target: T1, IKKε; assay: IKKε binding affinity (Kd)
[4] = system: pIRF3; assay: Inhibition of TBK1 downstream marker pIRF3 in cells; type: cell-based
Procedure: (§1) In vitro degradation assay protocol for compounds 3-33: Panc02.13 cells were purchased from ATCC and cultured in RPMI-1640 (Gibco), supplemented with 15% FBS (ATCC) and 10 Units/mL human recombinant insulin (Gibco). PROTAC treatments were carried out in 12-well plates for 16 h. TLR3 agonist Poly I:C (Invivogen; tlr1-pic) was added for the final 3 h. Cells were harvested, and lysed in RIPA buffer (50 mM Tris pH8, 150 mM NaCl, 1% Tx-100, 0.1% SDS, 0.5% Sodium Deoxycholate) supplemented with protease and phosphatase inhibitors. Lysates were clarified at 16,000 g for 10 minutes, and supernatants were separated by SDS-PAGE. Immunoblotting was performed using standard protocols. The antibodies used were TBK1 (Cell Signaling#3504), pIRF3 (abcam#ab76493), and GAPDH (Cell Signaling#5174).

[5] = target: T2, TBK1 (Homo sapiens (Human), UniProt Q9UHD2); assay: TBK1 degradation in KRAS mutant and wild type cell lines; type: cell-based; details: 72 hour treatment; H23, A549, H1792 (KRAS mutant), H2110 (KRAS wild type)
[6] = target: T2, TBK1; assay: In vitro TBK1 degradation assay, Panc02.13 cells (compounds 3-33), immunoblot; type: cell-based; details: for DC50: read-out: DC50 (concentration at which 50% degradation is observed)
Procedure: as §1

[7] = system: KRAS mutant cell lines H23, A549 and H1792, and KRAS wild type cell line H2110; assay: Proliferation of KRAS mutant and wild type cell lines; type: cell-based; details: 72 hour treatment
[8] = target: T2, TBK1; assay: TBK1 binding affinity (Kd)
[9] = TBK1 degradation, Panc02.13 cells, 16 h, mean of ≥ 2 determinations

T2 sequence (Q9UHD2 whole entry): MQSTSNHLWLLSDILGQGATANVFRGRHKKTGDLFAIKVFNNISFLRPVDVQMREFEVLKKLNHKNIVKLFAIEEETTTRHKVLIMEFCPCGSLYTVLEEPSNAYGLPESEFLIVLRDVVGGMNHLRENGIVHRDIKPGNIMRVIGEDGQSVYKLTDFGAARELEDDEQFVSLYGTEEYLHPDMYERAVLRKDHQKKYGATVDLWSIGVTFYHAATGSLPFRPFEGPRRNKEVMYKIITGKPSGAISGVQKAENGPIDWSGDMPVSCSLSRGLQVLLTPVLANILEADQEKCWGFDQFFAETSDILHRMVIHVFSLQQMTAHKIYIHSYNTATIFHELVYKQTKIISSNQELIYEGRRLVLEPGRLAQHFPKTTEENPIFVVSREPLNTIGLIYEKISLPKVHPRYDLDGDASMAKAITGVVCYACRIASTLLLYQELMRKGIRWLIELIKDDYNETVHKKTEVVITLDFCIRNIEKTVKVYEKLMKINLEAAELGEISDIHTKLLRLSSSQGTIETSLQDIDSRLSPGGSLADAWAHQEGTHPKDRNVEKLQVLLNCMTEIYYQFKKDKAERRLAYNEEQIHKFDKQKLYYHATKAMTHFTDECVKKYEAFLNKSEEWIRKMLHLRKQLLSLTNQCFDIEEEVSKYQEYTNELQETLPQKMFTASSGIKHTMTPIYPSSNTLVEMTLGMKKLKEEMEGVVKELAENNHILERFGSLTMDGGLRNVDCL
T1 sequence (Q14164 whole entry): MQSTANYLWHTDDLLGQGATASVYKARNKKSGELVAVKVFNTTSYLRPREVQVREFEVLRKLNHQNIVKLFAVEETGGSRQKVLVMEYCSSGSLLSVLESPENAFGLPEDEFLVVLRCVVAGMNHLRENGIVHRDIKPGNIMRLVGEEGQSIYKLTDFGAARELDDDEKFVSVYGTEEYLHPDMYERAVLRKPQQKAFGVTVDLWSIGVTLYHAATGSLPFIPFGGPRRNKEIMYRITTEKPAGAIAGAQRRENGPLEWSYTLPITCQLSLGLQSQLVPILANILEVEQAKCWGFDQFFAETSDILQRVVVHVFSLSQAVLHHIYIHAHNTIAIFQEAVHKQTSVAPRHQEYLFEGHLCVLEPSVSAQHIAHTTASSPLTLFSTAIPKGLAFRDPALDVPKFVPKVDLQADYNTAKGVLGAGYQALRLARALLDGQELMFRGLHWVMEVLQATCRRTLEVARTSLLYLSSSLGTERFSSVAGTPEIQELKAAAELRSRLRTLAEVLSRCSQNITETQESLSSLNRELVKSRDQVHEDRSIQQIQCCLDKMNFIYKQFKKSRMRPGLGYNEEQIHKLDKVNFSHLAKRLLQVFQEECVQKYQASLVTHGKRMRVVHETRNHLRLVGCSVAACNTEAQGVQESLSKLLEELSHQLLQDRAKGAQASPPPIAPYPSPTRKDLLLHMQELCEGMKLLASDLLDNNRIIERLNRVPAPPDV
Chain of Von Hippel-Lindau (VHL) E3 ligase (P40337 whole entry, looked up): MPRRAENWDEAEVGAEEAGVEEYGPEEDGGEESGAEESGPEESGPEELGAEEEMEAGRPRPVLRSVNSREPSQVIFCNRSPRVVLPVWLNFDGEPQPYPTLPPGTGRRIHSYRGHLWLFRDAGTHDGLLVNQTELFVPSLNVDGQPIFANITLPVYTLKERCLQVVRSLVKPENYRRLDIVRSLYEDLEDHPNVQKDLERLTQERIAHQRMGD
Chain of Von Hippel-Lindau (VHL) E3 ligase (Q15370 whole entry partner, looked up): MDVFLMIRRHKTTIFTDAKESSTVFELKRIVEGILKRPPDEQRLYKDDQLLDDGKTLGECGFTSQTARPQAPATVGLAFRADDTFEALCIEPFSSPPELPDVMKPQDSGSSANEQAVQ
Chain of Von Hippel-Lindau (VHL) E3 ligase (Q15369 whole entry partner, looked up): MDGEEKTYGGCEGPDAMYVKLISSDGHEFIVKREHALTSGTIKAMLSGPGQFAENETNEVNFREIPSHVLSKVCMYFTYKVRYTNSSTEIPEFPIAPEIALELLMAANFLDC

| SMILES | IC50 [2] [nM] | DC50 [6, 9] [nM] | Kd [8] [nM] | Dmax (maximal degradation observed) [6, 9] [%] | other results |
| --- | --- | --- | --- | --- | --- |
| Cc1ncsc1-c1ccc(CNC(=O)[C@@H]2C[C@@H](O)CN2C(=O)[C@@H](NC(=O)COCCCOCCCCOCCCOc2ccc(Nc3ncc(Br)c(NCCCN(C)C(=O)C4CCC4)n3)cc2)C(C)(C)C)cc1 [Compound 11, (2S,4R)-1-((S)-18-(4-((5-Bromo-4-((3-(N-methylcyclobutanecarboxamido)-propyl)amino)pyrimidin-2-yl)amino)phenoxy)-2-(tert-butyl)-4-oxo-6,10,15-trioxa-3-azaoctadecan-1-oyl)-4-hydroxy-N-(4-(4-methylthiazol-5-yl)benzyl)pyrrolidine-2-carboxamide] | 800 | 12 | 4.6 ± 1.1 | – | IKKε degradation [1]: negligible degradation; degradation selectivity TBK1 over IKKε [1]: selectively degrades TBK1 over IKKε; Kd [3]: 70 nM; intracellular TBK1 binding indicated by inhibition of pIRF3 [4]: competent intracellular TBK1 binding; TBK1 degradation in KRAS mutant and wild type cells [5]: near complete degradation of TBK1; Dmax ([6]; TBK1 degradation, Panc02.13 cells, 16 h, mean of ≥ 2 determinations, read-out: Dmax (maximal degradation observed)): 96%; TBK1 degradation with excess VHL ligand 2 added ([6]; excess VHL ligand 2 as competitor): abrogated TBK1's degradation; TBK1 degradation (in words) ([6]; listed as PROTAC 11): Maximal efficacy; also recorded: effects degradation of TBK1; TBK1 degradation after pre-treatment with proteasome inhibitor carfilzomib ([6]; pre-treatment with carfilzomib, listed as PROTAC 11): markedly reduced the extent of TBK1 degradation; also recorded: abrogated; effect on proliferation of KRAS mutant versus wild type cells [7]: no differential effect on the proliferation |
| Cc1ncsc1-c1ccc(CNC(=O)[C@@H]2C[C@@H](O)CN2C(=O)[C@@H](NC(=O)COCCCOCCCCOCCCOc2ccc(Nc3ncc(C4CCC4)c(NCCCN(C)C(=O)C4CCC4)n3)cc2)C(C)(C)C)cc1 [Compound 22] | – | 544 | 1040 ± 165 | 70 | Kd ([8]; rounded value): 1000 nM |
| CC[C@H](NC(=O)COCCCOCCCCOCCCOc1ccc(Nc2ncc(Br)c(NCCCN(C)C(=O)C3CCC3)n2)cc1)C(=O)N1C[C@H](O)C[C@H]1C(=O)NCc1ccc(-c2scnc2C)cc1 [Compound 31] | 70400 | 864 | – | 71 | Dmax (maximal degradation observed) ([6]; TBK1 degradation, Panc02.13 cells, 16 h, mean of ≥ 2 determinations, listed as PROTAC 31): > 70% |
| CCC[C@H](NC(=O)COCCCOCCCCOCCCOc1ccc(Nc2ncc(Br)c(NCCCN(C)C(=O)C3CCC3)n2)cc1)C(=O)N1C[C@H](O)C[C@H]1C(=O)NCc1ccc(-c2scnc2C)cc1 [Compound 32] | 6200 | 288 | – | 75 | – |
| Cc1ncsc1-c1ccc(CNC(=O)[C@@H]2C[C@@H](O)CN2C(=O)[C@@H](NC(=O)COCCCOCCCCOCCCOc2ccc(Nc3ncc(Br)c(NCCCN(C)C(=O)C4CCC4)n3)cc2)C(C)C)cc1 [Compound 33] | 1450 | 44 | – | 88 | – |
